# Results taken from ChEMBL document CHEMBL5356979, “Synthesis, antibiofilm activity and molecular docking of N-acylhomoserine lactones containing cinammic moieties” (Bioorg Med Chem Lett, 2024).
# The source made the active and inactive calls. No cut-off for these calls is given here.
# Experiments:
# Staphylococcus aureus [1] = experiment: Antibacterial activity against Staphylococcus aureus assessed as inhibition of bacterial growth at 50 uM incubated for 24 hrs by microdilution method; assay type: functional, organism-based
# Klebsiella pneumoniae [2] = experiment: Antibacterial activity against Klebsiella pneumoniae assessed as inhibition of bacterial growth at 50 uM incubated for 24 hrs by microdilution method; assay type: functional, organism-based
# Pseudomonas aeruginosa [3] = experiment: Antibacterial activity against Pseudomonas aeruginosa assessed as inhibition of bacterial growth at 50 uM incubated for 24 hrs by microdilution method; assay type: functional, organism-based
# Klebsiella pneumoniae [4] = experiment: Antibiofilm activity against Klebsiella pneumoniae assessed as inhibition of biofilm formation at 50 uM incubated for 24 hrs by crystal violet staining based analysis relative to control; assay type: functional
# Pseudomonas aeruginosa [5] = experiment: Antibiofilm activity against Pseudomonas aeruginosa assessed as inhibition of biofilm formation at 50 uM incubated for 24 hrs by crystal violet staining based analysis relative to control; assay type: functional
# Staphylococcus aureus [6] = experiment: Antibiofilm activity against Staphylococcus aureus assessed as inhibition of biofilm formation at 50 uM incubated for 24 hrs by crystal violet staining based analysis relative to control; assay type: functional
# [7] = Inhibition of quorum sensing system in Chromobacterium violaceum assessed as inhibition of violacein secretion by measuring inhibition halo at 50 uM
# [8] = Inhibition of quorum sensing system in Chromobacterium violaceum assessed as inhibition of violacein secretion by measuring inhibition halo at 100 uM
# [9] = Aqueous solubility of compound; assay type: physicochemical; conditions: buffer
# [10] = Cytotoxicity against green monkey COS-7 cells assessed as inhibition of cell growth at 100 uM relative to control; assay type: toxicity, cell-based; conditions: chlorocebus aethiops
# [11] = system: Rhodopseudomonas palustris; experiment: Antibiofilm activity against Rhodopseudomonas palustris assessed as inhibition of biofilm formation at 1 uM relative to control; assay type: functional
inhibition zone (IZ) [7] [mm],inhibition zone (IZ) [8] [mm],solubility [9],Structure (SMILES),Activity (Staphylococcus aureus [1]),Activity (Klebsiella pneumoniae [2]),Activity (Pseudomonas aeruginosa [3]),inhibition at 50 µM (Klebsiella pneumoniae [4]) [%],inhibition at 50 µM (Pseudomonas aeruginosa [5]) [%],inhibition at 50 µM (Staphylococcus aureus [6]) [%],inhibition at 100 µM [10] [%],inhibition at 1 µM [11] [%]
0.6,0.3,,COc1ccc(/C=C/C(=O)N[C@H]2CCOC2=O)cc1,inactive,inactive,inactive,12,35.9,8.49,,
,,Insoluble,COc1cccc(/C=C/C(=O)N[C@H]2CCOC2=O)c1,inactive,inactive,inactive,22.3,0,27.3,,
,,Insoluble,O=C(/C=C/c1cccc(F)c1)N[C@H]1CCOC1=O,inactive,inactive,inactive,0,0,0,,
1.3,2,,Cc1ccc(/C=C/C(=O)N[C@H]2CCOC2=O)cc1,inactive,inactive,inactive,16.9,29.8,4.4,,
2.2,2.7,,O=C(/C=C/C=C/c1ccccc1)N[C@H]1CCOC1=O,inactive,inactive,inactive,28.3,30.2,14,0,
1.3,0.6,,O=C(/C=C/c1ccccc1)N[C@H]1CCOC1=O,inactive,inactive,inactive,0,29.1,18,,
,,Insoluble,O=C(/C=C/c1ccc(-c2ccccc2)cc1)N[C@H]1CCOC1=O,inactive,inactive,inactive,0,0,8.4,,
,,Insoluble,Cn1c(/C=C/C(=O)N[C@H]2CCOC2=O)cc2ccccc21,inactive,inactive,inactive,0,0,0.5,,

# The remaining lines, values behind:
Structure (SMILES),inhibition zone (IZ) [7] [mm],inhibition zone (IZ) [8] [mm],solubility [9],Activity (Staphylococcus aureus [1]),Activity (Klebsiella pneumoniae [2]),Activity (Pseudomonas aeruginosa [3]),inhibition at 50 µM (Klebsiella pneumoniae [4]) [%],inhibition at 50 µM (Pseudomonas aeruginosa [5]) [%],inhibition at 50 µM (Staphylococcus aureus [6]) [%],inhibition at 100 µM [10] [%],inhibition at 1 µM [11] [%]
O=C(/C=C/c1ccc(C(F)(F)F)cc1)N[C@H]1CCOC1=O,,,,inactive,inactive,inactive,30.2,0,2.2,,
O=C1C=C(Br)/C(=C/Br)O1,1.3,5.1,,,,,8.4,40.2,10.1,,
O=C(/C=C/c1ccc2c(c1)OCO2)N[C@H]1CCOC1=O,,,Insoluble,inactive,inactive,inactive,27.1,0,5,,
O=C(/C=C/c1cccnc1)N[C@H]1CCOC1=O,,,,inactive,inactive,inactive,0,14.2,0,,
Cn1cccc1/C=C/C(=O)N[C@H]1CCOC1=O,,,Insoluble,inactive,inactive,inactive,0,0,0,,
O=C(/C=C/c1ccc(F)cc1)N[C@H]1CCOC1=O,,,,inactive,inactive,inactive,0,20.3,0,,
CC(C)=CCC/C(C)=C/C(=O)N[C@H]1CCOC1=O,,,,inactive,inactive,inactive,24.5,25.3,26.5,,
COc1cc(/C=C/C(=O)N[C@H]2CCOC2=O)cc(OC)c1OC,2.7,3.7,,inactive,inactive,inactive,0,26.9,37.1,3.2,
O=C(/C=C/c1ccco1)N[C@H]1CCOC1=O,,,,inactive,inactive,inactive,0,24.3,18.2,,
O=C(/C=C/c1cccs1)N[C@H]1CCOC1=O,,,,inactive,inactive,inactive,12.6,19.6,15.3,,
O=C(/C=C/c1ccc(Cl)cc1)N[C@H]1CCOC1=O,,,,inactive,inactive,inactive,0,23.7,12,,30
CC(C)c1ccc(/C=C/C(=O)N[C@H]2CCOC2=O)cc1,,,,inactive,inactive,inactive,17.9,23.7,16.1,,
